Measured values taken from ChEMBL document CHEMBL1131403, “Selective inhibition of the chymotrypsin-like activity of the 20S proteasome by 5-methoxy-1-indanone dipeptide benzamides” (Bioorg Med Chem Lett, 1998).
Where a SMILES comes first, the peptide text is derived from it. [ ]: non-standard residue; d: D form. Nle = CCCC[C@H](N)C(=O)O

What was measured:
Proteasome [1] = assay: Inhibition of chymotrypsin-like activity of 20S proteasome; type: subcellular
Calpain 1 [2] = target: T1, Calpain 1 (Homo sapiens, UniProt P04632+P07384); assay: Inhibitory activity against calpain I; no inhibition was observed; type: protein-complex assay
T1 sequence (P04632 whole entry): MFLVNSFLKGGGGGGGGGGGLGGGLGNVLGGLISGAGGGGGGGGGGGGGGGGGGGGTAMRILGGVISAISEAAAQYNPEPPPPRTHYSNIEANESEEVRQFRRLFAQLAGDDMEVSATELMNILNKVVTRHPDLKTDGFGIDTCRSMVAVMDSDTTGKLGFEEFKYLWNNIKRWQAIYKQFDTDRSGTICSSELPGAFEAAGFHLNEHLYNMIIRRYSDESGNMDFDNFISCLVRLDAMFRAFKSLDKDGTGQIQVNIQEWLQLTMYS
T1 sequence (P07384 whole entry): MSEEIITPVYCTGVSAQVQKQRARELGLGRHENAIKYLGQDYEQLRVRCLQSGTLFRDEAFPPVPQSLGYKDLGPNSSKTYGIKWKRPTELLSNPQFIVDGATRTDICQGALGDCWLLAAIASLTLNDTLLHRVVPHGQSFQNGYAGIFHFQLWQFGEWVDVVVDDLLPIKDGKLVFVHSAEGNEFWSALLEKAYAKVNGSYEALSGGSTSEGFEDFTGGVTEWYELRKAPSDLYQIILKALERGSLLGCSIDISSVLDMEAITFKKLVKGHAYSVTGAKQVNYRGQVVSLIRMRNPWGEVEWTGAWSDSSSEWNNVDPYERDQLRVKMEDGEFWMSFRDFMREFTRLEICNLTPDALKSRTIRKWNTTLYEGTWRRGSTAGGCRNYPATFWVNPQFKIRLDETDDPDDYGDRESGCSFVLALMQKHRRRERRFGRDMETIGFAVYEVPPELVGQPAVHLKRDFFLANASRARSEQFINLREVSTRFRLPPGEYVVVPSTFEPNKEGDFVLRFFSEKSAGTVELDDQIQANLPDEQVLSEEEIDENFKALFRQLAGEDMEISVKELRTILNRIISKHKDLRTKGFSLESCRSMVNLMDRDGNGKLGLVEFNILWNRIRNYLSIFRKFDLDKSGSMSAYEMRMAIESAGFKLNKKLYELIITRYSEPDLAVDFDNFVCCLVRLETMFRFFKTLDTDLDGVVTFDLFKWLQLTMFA

RAW = assay: Antiproliferative activity against murine macrophage (RAW) cell line; type: functional, cell-based; conditions: Mus musculus
Proteasome [3] = assay: Inhibition of chymotrypsin-like activity of 20S proteasome; value ranges from 10-20 uM; type: subcellular
Calpain 1 [4] = target: Calpain 1 (Homo sapiens, UniProt P07384); assay: Inhibitory activity against Calpain I; type: protein-complex assay

IC50 (Proteasome [1]) [µM] | IC50 (Calpain 1 [2]) | IC50 (Proteasome [3]) [µM] | IC50 (Calpain 1 [4]) [µM] | SMILES | IC50 (RAW) [µM]
> 17 | No inhibition | – | – | COc1ccc2c(c1)C(CC(=O)N[C@@H](CC(C)C)C(=O)N[C@H](CC(C)C)C(=O)NCc1ccc([N+](=O)[O-])cc1)CC2=O (some centres undefined) | –
> 18 | No inhibition | – | – | COc1ccc2c(c1)C(CC(=O)N[C@@H](CC(C)C)C(=O)N[C@H](CC(C)C)C(=O)N(C)Cc1ccccc1)CC2=O (some centres undefined) | –
> 20 | No inhibition | – | – | COc1ccc2c(c1)C(CC(=O)N[C@H](CC(C)C)C(=O)N[C@H](CC(C)C)C(=O)NCC(N)=O)CC2=O (some centres undefined) | –
> 20 | No inhibition | – | – | COc1ccc2c(c1)C(CC(=O)N[C@@H](CC(C)C)C(=O)N[C@@H](CC(C)C)C(N)=O)CC2=O (some centres undefined) | –
> 20 | No inhibition | – | – | COc1ccc2c(c1)C(CC(=O)N[C@@H](C(=O)N[C@H](CC(C)C)C(N)=O)C(C)C)CC2=O (some centres undefined) | –
0.89 | No inhibition | – | – | COc1ccc2c(c1)C(CC(=O)N[C@@H](CC(C)C)C(=O)N[C@H](CC(C)C)C(=O)NC1CCc3ccccc31)CC2=O (some centres undefined) | –
1.9 | No inhibition | – | – | COc1ccc2c(c1)C(CC(=O)N[C@@H](CC(C)C)C(=O)N[C@H](CC(C)C)C(=O)NCc1ccco1)CC2=O (some centres undefined) | –
> 20 | No inhibition | – | – | COc1ccc2c(c1)C(CC(=O)N[C@@H](CC(C)C)C(=O)N[C@@H](CC(C)C)C(=O)NCC(N)=O)CC2=O (some centres undefined) | –
2.2 | No inhibition | – | – | COc1ccc2c(c1)C(CC(=O)N[C@H](CC(C)C)C(=O)N[C@H](CC(C)C)C(N)=O)CC2=O (some centres undefined) | –
> 20 | No inhibition | – | – | COc1ccc2c(c1)C(CC(=O)N[C@@H](CC(C)C)C(=O)N[C@H](CC(C)C)C(=O)N1CCCCC1)CC2=O (some centres undefined) | –
> 19 | No inhibition | – | – | COc1ccc2c(c1)C(CC(=O)N[C@@H](CC(C)C)C(=O)N[C@H](CC(C)C)C(=O)Nc1ccccc1)CC2=O (some centres undefined) | –
0.93 | No inhibition | – | – | COc1ccc2c(c1)C(CC(=O)N[C@@H](CC(C)C)C(=O)N[C@H](CC(C)C)C(=O)NCc1ccccc1)CC2=O (some centres undefined) | 7
– | No inhibition | 10 | – | COc1ccc2c(c1)C(CC(=O)N[C@H](CC(C)C)C(=O)N[C@@H](CC(C)C)C(=O)NCC(N)=O)CC2=O (some centres undefined) | –
> 20 | No inhibition | – | – | COc1ccc2c(c1)C(CC(=O)N[C@H](CC(C)C)C(=O)N[C@@H](C(N)=O)C(C)C)CC2=O (some centres undefined) | –
> 18 | No inhibition | – | – | COc1ccc2c(c1)C(CC(=O)N[C@@H](CC(C)C)C(=O)N[C@H](CC(C)C)C(=O)NC1C3CC4CC(C3)CC1C4)CC2=O (some centres undefined) | –
0.34 | No inhibition | – | – | COc1ccc2c(c1)C(CC(=O)N[C@@H](CC(C)C)C(=O)N[C@H](CC(C)C)C(=O)NCc1ccc3c(c1)OCO3)CC2=O (some centres undefined) | –
> 20 | No inhibition | – | – | COc1ccc2c(c1)C(CC(=O)N[C@H](CC(C)C)C(=O)N[C@@H](CC(C)C)C(N)=O)CC2=O (some centres undefined) | –
> 16 | No inhibition | – | – | COc1ccc2c(c1)C(CC(=O)N[C@@H](CC(C)C)C(=O)N[C@H](CC(C)C)C(=O)NCc1c(F)c(F)c(F)c(F)c1F)CC2=O (some centres undefined) | –

IC50 (Proteasome [1]) [µM] | IC50 (Calpain 1 [2]) | IC50 (Proteasome [3]) [µM] | IC50 (Calpain 1 [4]) [µM] | SMILES | IC50 (RAW) [µM]
> 20 | No inhibition | – | – | CCC[C@H](NC(=O)CC1CC(=O)c2ccc(OC)cc21)C(=O)N[C@H](CC(C)C)C(=O)NCC(N)=O (some centres undefined) | –
> 18 | No inhibition | – | – | COc1ccc2c(c1)C(CC(=O)N[C@@H](CC(C)C)C(=O)N[C@H](CC(C)C)C(=O)NCC1CCCCC1)CC2=O (some centres undefined) | –
> 20 | No inhibition | – | – | COc1ccc2c(c1)C(CC(=O)N[C@@H](CC(C)C)C(=O)N[C@H](CC(C)C)C(=O)NCCO)CC2=O (some centres undefined) | –
0.2 | No inhibition | – | – | COc1ccc2c(c1)C(CC(=O)N[C@@H](CC(C)C)C(=O)N[C@H](CC(C)C)C(=O)NCC(N)=O)CC2=O (some centres undefined) | –
> 20 | No inhibition | – | – | COc1ccc2c(c1)C(CC(=O)N[C@@H](CC(C)C)C(=O)N[C@H](CC(C)C)C(=O)N1CCCC1)CC2=O (some centres undefined) | –
> 20 | No inhibition | – | – | COc1ccc2c(c1)C(CC(=O)N[C@@H](CC(C)C)C(=O)N[C@H](CC(C)C)C(=O)N1CCOCC1)CC2=O (some centres undefined) | –
> 20 | No inhibition | – | – | COc1ccc2c(c1)C(CC(=O)N[C@@H](CC(C)C)C(=O)N[C@H](CC(C)C)C(N)=O)CC2=O (some centres undefined) | –
8.7 | No inhibition | – | – | COc1ccc2c(c1)C(CC(=O)N[C@@H](CC(C)C)C(=O)N[C@H](CC(C)C)C(=O)NCc1occ3ccccc13)CC2=O (some centres undefined) | –
0.14 | No inhibition | – | – | COc1ccc2c(c1)C(CC(=O)N[C@@H](CC(C)C)C(=O)N[C@H](CC(C)C)C(=O)NCc1c(F)cccc1F)CC2=O (some centres undefined) | 8
16 | No inhibition | – | – | COc1ccc2c(c1)C(CC(=O)N[C@@H](CC(C)C)C(=O)N[C@H](CC(C)C)C(=O)NCc1ccc(OCc3ccccc3)cc1)CC2=O (some centres undefined) | –
> 20 | No inhibition | – | – | COc1ccc2c(c1)C(CC(=O)N[C@H](Cc1ccccc1)C(=O)N[C@H](CC(C)C)C(N)=O)CC2=O (some centres undefined) | –
> 18 | No inhibition | – | – | COc1ccc2c(c1)C(CC(=O)N[C@@H](CC(C)C)C(=O)N[C@H](CC(C)C)C(=O)NCCc1ccccc1)CC2=O (some centres undefined) | –
> 20 | No inhibition | – | – | COc1ccc2c(c1)C(CC(=O)N[C@@H](CC(C)C)C(=O)N[C@H](CC(C)C)C(=O)NC(C)C)CC2=O (some centres undefined) | –
> 16 | No inhibition | – | – | COc1ccc2c(c1)C(CC(=O)N[C@@H](CC(C)C)C(=O)N[C@H](CC(C)C)C(=O)NCc1ccccc1-c1ccccc1)CC2=O (some centres undefined) | –
0.49 | No inhibition | – | – | COc1ccc2c(c1)C(CC(=O)N[C@@H](CC(C)C)C(=O)N[C@H](CC(C)C)C(=O)NCc1ccc(-c3ccccc3)cc1)CC2=O (some centres undefined) | –
0.71 | No inhibition | – | – | COc1ccc(CNC(=O)[C@@H](CC(C)C)NC(=O)[C@H](CC(C)C)NC(=O)CC2CC(=O)c3ccc(OC)cc32)cc1 (some centres undefined) | –
> 16 | No inhibition | – | – | COc1ccc2c(c1)C(CC(=O)N[C@@H](CC(C)C)C(=O)N[C@H](CC(C)C)C(=O)NC(c1ccccc1)c1ccccc1)CC2=O (some centres undefined) | –
0.15 | – | – | 7 | CCCC[C@@H](C=O)NC(=O)[C@H](CC(C)C)NC(=O)[C@H](CC(C)C)NC(C)=O (Ac-Leu-Leu-[Nle]-aldehyde) | –
